In patent publication US4175125A, “Method for treating methicillin resistant staphylococcus aureus” (Eli Lilly and Company, priority 1978, dated 1979):
≈ marks a conversion by molar mass, not a printed value.

Key:
[1] = tested on: Staphylococcus aureus cultures; assay: Agar dilution susceptibility test, phenylthioacetyl cephalosporins vs methicillin resistant S. aureus (Example 9); type: cell-based; conditions: for MIC: Staphylococcus aureus, read-out: MIC
Description: This example compares the antibiotic activities of three known compounds, methicillin, cephalothin, and cephaloridine, with three compounds from the above examples, in terms of minimum inhibitory concentration (MIC) values in microgram/milliliter units against various isolates of Staphylococcus aureus cultures. The culture numbers and the procedures used to obtain the reported data are disclosed by W. E. Wick and D. A. Preston in their article "Heterogeneous Methicillin-Resistant Staphylococcus Aureus" which appeared in Progress in Antimicrobial And Anticancer Chemotherapy, Proceedings of the 6th International Congress of Chemotherapy, Volume, 1, U. of Tokyo Press, Tokyo, (1970). In these agardilution susceptibility tests, the inocula were diluted to 10^3 bacteria per spot. Cultures 3055 (benzylpenicillin sensitive) and H232 (benzylpenicillin-resistant) are controls. The remaining cultures are methicillin-resistant, and, except for 3136, are clinical isolates. Culture 3136 is a 4th transfer laboratory selected mutant.

[2] = tested on: Staphylococcus aureus cultures; assay: Broth dilution MIC in trypticase soy broth, low and high NaCl (Example 10); type: cell-based; conditions: Staphylococcus aureus, TSB, read-out: MIC
Procedure: This example compares the antibiotic activities of methicillin, cephalothin and cephaloridine with the compounds of Examples 1, 2 and 3, in broth dilution tests. The MIC values, in μg/ml., are against the same Staphylococcus aureus cultures described in Example 9, except that in this example the cultures were grown in trypticase soy broth (TSB). Growing the cultures in two broth cultures, one having a low (0.5 percent) sodium chloride content and one having a high (5.0 percent) sodium chloride content is said to assist in identifying the methicillin-resistant cultures from those which are not methicillin-resistant. […] See Chabbert, Y. A., 1967 Postgrad. Med. J., 43 (suppl); 40-46. One expects that similar changes in MIC values for this type of culture to other β-lactam antibiotics, e.g., various penicillins and cephalosporins, to have similar implications. […] That is, methicillin-resistant S.aureus cultures are susceptible to the cephalosporin antibiotics used in this invention.

[3] = culture 3055 (control, benzylpenicillin sensitive), table part marked b
[4] = culture 3055 (control, benzylpenicillin sensitive), table part marked c
[5] = culture 3130, table part marked b
[6] = culture 3130, table part marked c
[7] = culture 3131, table part marked b
[8] = culture 3131, table part marked c
[9] = culture 3132, table part marked b
[10] = culture 3132, table part marked c
[11] = culture 3133, table part marked b
[12] = culture 3133, table part marked c
[13] = culture 3134, table part marked b
[14] = culture 3134, table part marked c
[15] = culture 3135, table part marked b
[16] = culture 3135, table part marked c
[17] = culture 3136, table part marked b
[18] = culture 3136, table part marked c
[19] = culture 3137, table part marked b
[20] = culture 3137, table part marked c
[21] = culture 3138, table part marked b
[22] = culture 3138, table part marked c
[23] = culture 3139, table part marked b
[24] = culture 3139, table part marked c
[25] = culture (Seattle) 966, table part marked b
[26] = culture (Seattle) 966, table part marked c
[27] = culture H232 (control, benzylpenicillin-resistant), table part marked b
[28] = culture H232 (control, benzylpenicillin-resistant), table part marked c
[29] = culture Kavarmark 1138501, table part marked b
[30] = culture Kavarmark 1138501, table part marked c
[31] = culture S61, table part marked b
[32] = culture S61, table part marked c
[33] = culture 3132 (first column so headed), table part marked b
[34] = culture 3132 (first column so headed), table part marked c
[35] = culture 3132 (second column so headed), table part marked b
[36] = culture 3132 (second column so headed), table part marked c
[37] = culture Kavarnick 1138501, table part marked b
[38] = culture Kavarnick 1138501, table part marked c

O=C(Cc1cccs1)N[C@@H]1C(=O)N2C(C(=O)[O-])=C(C[n+]3ccccc3)CS[C@H]12 [Cephaloridine, cephaloridine, reference compound]
MIC [1, 3]: < 0.06 µg/mL | MIC [1, 4]: 0.25 µg/mL (≈ 0.602 µM) | MIC [1, 5]: 4 µg/mL (≈ 9.63 µM) | MIC [1, 6]: 8 µg/mL (≈ 19.3 µM) | MIC [1, 7]: 1 µg/mL (≈ 2.41 µM) | MIC [1, 8]: 16 µg/mL (≈ 38.5 µM) | MIC [1, 9]: 2 µg/mL (≈ 4.81 µM) | MIC [1, 10]: 2 µg/mL (≈ 4.81 µM) | MIC [1, 11]: 4 µg/mL (≈ 9.63 µM) | MIC [1, 12]: 16 µg/mL (≈ 38.5 µM) | MIC [1, 13]: 8 µg/mL (≈ 19.3 µM) | MIC [1, 14]: 16 µg/mL (≈ 38.5 µM) | MIC [1, 15]: 1 µg/mL (≈ 2.41 µM) | MIC [1, 16]: 8 µg/mL (≈ 19.3 µM) | MIC [1, 17]: 0.25 µg/mL (≈ 0.602 µM) | MIC [1, 18]: 16 µg/mL (≈ 38.5 µM) | MIC [1, 19]: 8 µg/mL (≈ 19.3 µM) | MIC [1, 20]: 32 µg/mL (≈ 77 µM) | MIC [1, 21]: 8 µg/mL (≈ 19.3 µM) | MIC [1, 22]: 16 µg/mL (≈ 38.5 µM) | MIC [1, 23]: 1 µg/mL (≈ 2.41 µM) | MIC [1, 24]: 4 µg/mL (≈ 9.63 µM) | MIC [1, 25]: 0.25 µg/mL (≈ 0.602 µM) | MIC [1, 26]: 0.25 µg/mL (≈ 0.602 µM) | MIC [1, 27]: < 0.06 µg/mL | MIC [1, 28]: < 0.06 µg/mL | MIC [1, 29]: 1 µg/mL (≈ 2.41 µM) | MIC [1, 30]: 4 µg/mL (≈ 9.63 µM) | MIC [1, 31]: 4 µg/mL (≈ 9.63 µM) | MIC [1, 32]: 16 µg/mL (≈ 38.5 µM) | MIC [2, 7]: 2 µg/mL (≈ 4.81 µM) | MIC [2, 8]: 16 µg/mL (≈ 38.5 µM) | MIC [2, 33]: 2 µg/mL (≈ 4.81 µM) | MIC [2, 34]: 16 µg/mL (≈ 38.5 µM) | MIC [2, 35]: 1 µg/mL (≈ 2.41 µM) | MIC [2, 36]: 16 µg/mL (≈ 38.5 µM) | MIC [2, 15]: 2 µg/mL (≈ 4.81 µM) | MIC [2, 16]: 16 µg/mL (≈ 38.5 µM) | MIC [2, 17]: < 0.5 µg/mL | MIC [2, 18]: 16 µg/mL (≈ 38.5 µM) | MIC [2, 19]: 8 µg/mL (≈ 19.3 µM) | MIC [2, 20]: 32 µg/mL (≈ 77 µM) | MIC [2, 21]: 4 µg/mL (≈ 9.63 µM) | MIC [2, 22]: 16 µg/mL (≈ 38.5 µM) | MIC [2, 23]: 1 µg/mL (≈ 2.41 µM) | MIC [2, 24]: 8 µg/mL (≈ 19.3 µM) | MIC [2, 25]: 4 µg/mL (≈ 9.63 µM) | MIC [2, 26]: 8 µg/mL (≈ 19.3 µM) | MIC [2, 37]: 2 µg/mL (≈ 4.81 µM) | MIC [2, 38]: 16 µg/mL (≈ 38.5 µM) | MIC [2, 31]: 4 µg/mL (≈ 9.63 µM) | MIC [2, 32]: 64 µg/mL (≈ 154 µM) | MIC ([2]; culture S, table part marked b): 4 µg/mL (≈ 9.63 µM) | MIC ([2]; culture S, table part marked c): 16 µg/mL (≈ 38.5 µM)

CC(=O)OCC1=C(C(=O)O)N2C(=O)C(NC(=O)CSc3cc(Cl)ccc3Cl)C2SC1 (stereo not drawn) [Example 2, 7-(2,5-Dichlorophenylthioacetamido)-cephalosporanic acid]
MIC [1, 3]: < 0.06 µg/mL | MIC [1, 4]: < 0.06 µg/mL | MIC [1, 5]: 0.5 µg/mL (≈ 1.02 µM) | MIC [1, 6]: 2 µg/mL (≈ 4.07 µM) | MIC [1, 7]: 0.5 µg/mL (≈ 1.02 µM) | MIC [1, 8]: 1 µg/mL (≈ 2.04 µM) | MIC [1, 9]: 0.5 µg/mL (≈ 1.02 µM) | MIC [1, 10]: 0.5 µg/mL (≈ 1.02 µM) | MIC [1, 11]: 1 µg/mL (≈ 2.04 µM) | MIC [1, 12]: 2 µg/mL (≈ 4.07 µM) | MIC [1, 13]: 1 µg/mL (≈ 2.04 µM) | MIC [1, 14]: 2 µg/mL (≈ 4.07 µM) | MIC [1, 15]: 0.5 µg/mL (≈ 1.02 µM) | MIC [1, 16]: 1 µg/mL (≈ 2.04 µM) | MIC [1, 17]: 0.5 µg/mL (≈ 1.02 µM) | MIC [1, 18]: 1 µg/mL (≈ 2.04 µM) | MIC [1, 19]: 2 µg/mL (≈ 4.07 µM) | MIC [1, 20]: 4 µg/mL (≈ 8.14 µM) | MIC [1, 21]: 1 µg/mL (≈ 2.04 µM) | MIC [1, 22]: 1 µg/mL (≈ 2.04 µM) | MIC [1, 23]: 1 µg/mL (≈ 2.04 µM) | MIC [1, 24]: 0.5 µg/mL (≈ 1.02 µM) | MIC [1, 25]: 0.5 µg/mL (≈ 1.02 µM) | MIC [1, 26]: 0.25 µg/mL (≈ 0.509 µM) | MIC [1, 27]: < 0.06 µg/mL | MIC [1, 28]: < 0.06 µg/mL | MIC [1, 29]: 0.5 µg/mL (≈ 1.02 µM) | MIC [1, 30]: 1 µg/mL (≈ 2.04 µM) | MIC [1, 31]: 0.5 µg/mL (≈ 1.02 µM) | MIC [1, 32]: 1 µg/mL (≈ 2.04 µM) | effectiveness in in vitro tests vs methicillin, cephalothin and cephaloridine ([1]; various cultures of methicillin-resistant Staphylococcus aureus): substantially more effective than methicillin, cephalothin, and cephaloridine | MIC ([2]; culture 3055 (control), table part marked b): 0.06 µg/mL (≈ 0.122 µM) | MIC ([2]; culture 3055 (control), table part marked c): 0.06 µg/mL (≈ 0.122 µM) | MIC [2, 5]: 1 µg/mL (≈ 2.04 µM) | MIC [2, 6]: 8 µg/mL (≈ 16.3 µM) | MIC [2, 7]: < 0.5 µg/mL | MIC [2, 8]: 2 µg/mL (≈ 4.07 µM) | MIC [2, 33]: < 0.5 µg/mL | MIC [2, 34]: 2 µg/mL (≈ 4.07 µM) | MIC [2, 35]: < 0.5 µg/mL | MIC [2, 36]: 2 µg/mL (≈ 4.07 µM) | MIC [2, 13]: 2 µg/mL (≈ 4.07 µM) | MIC [2, 14]: 4 µg/mL (≈ 8.14 µM) | MIC [2, 15]: < 0.5 µg/mL | MIC [2, 16]: 2 µg/mL (≈ 4.07 µM) | MIC [2, 17]: 0.25 µg/mL (≈ 0.509 µM) | MIC [2, 18]: 4 µg/mL (≈ 8.14 µM) | MIC [2, 19]: 2 µg/mL (≈ 4.07 µM) | MIC [2, 20]: 4 µg/mL (≈ 8.14 µM) | MIC [2, 21]: 2 µg/mL (≈ 4.07 µM) | MIC [2, 22]: 2 µg/mL (≈ 4.07 µM) | MIC [2, 23]: 0.5 µg/mL (≈ 1.02 µM) | MIC [2, 24]: < 0.5 µg/mL | MIC [2, 25]: 0.5 µg/mL (≈ 1.02 µM) | MIC [2, 26]: 2 µg/mL (≈ 4.07 µM) | MIC ([2]; culture H232 (control), table part marked b): 0.12 µg/mL (≈ 0.244 µM) | MIC ([2]; culture H232 (control), table part marked c): 0.25 µg/mL (≈ 0.509 µM) | MIC [2, 37]: 0.5 µg/mL (≈ 1.02 µM) | MIC [2, 38]: 2 µg/mL (≈ 4.07 µM) | MIC [2, 31]: 0.5 µg/mL (≈ 1.02 µM) | MIC [2, 32]: 2 µg/mL (≈ 4.07 µM) | MIC ([2]; culture S, table part marked b): 0.5 µg/mL (≈ 1.02 µM) | MIC ([2]; culture S, table part marked c): 2 µg/mL (≈ 4.07 µM)
